Reference: patent US12053441B2, “Formulations for improving the delivery of hydrophobic agents” (THE ROYAL INSTITUTION FOR THE ADVANCEMENT OF LEARNING / …, priority 2018, dated 2024)
Blank lines part the entries; values can stand above or below the compound they belong to. Starred links: 1 amine or outer side, 2 acyl side, 3 side chain; linkers in the order of their positions; H or OH if unused. Positions of bridges follow the written chain, without caps; N, C: chain ends. Non-standard residues stand in square brackets, D forms with d. Residues, ends and D or L forms follow the SMILES beside them. *: point of attachment. hTyr(3S-OH,4S-OH,3'-OSO3H) = N[C@H](C(=O)O)[C@H](O)[C@@H](O)c1ccc(O)c(OS(=O)(=O)O)c1; pTerphenylCO(4''-OnC5H11) = CCCCCOc1ccc(-c2ccc(-c3ccc(C(=O)*)cc3)cc2)cc1; Orn(4R-OH,5R-OH) = O=C([C@H](C[C@@H](O)[C@@H](O)N[*:3])N[*:1])[*:2]; hTyr(3S-OH,4S-OH) = N[C@H](C(=O)O)[C@H](O)[C@@H](O)c1ccc(O)cc1; Pro(3S-OH,4S-Me) = C[C@H]1CN[C@H](C(=O)O)[C@H]1O; X2 = CCCCCOc1ccc(-c2cc(-c3ccc(C(=O)*)cc3)no2)cc1; Gln(3R-OH) = NC(=O)C[C@@H](O)[C@H](N)C(=O)O; Hyp = O=C(O)[C@@H]1C[C@@H](O)CN1

What was measured:
Mclk1 KO cells = experiment: Viability in glucose-free galactose-containing medium (resazurin reduction assay); type: cell-based, mouse; conditions: sufficiently high dose (FIG. 3A)
Method: Tissue culture and viability assays. […] To score growth and viability in galactose, cells were first grown in high glucose DMEM medium to confluency and then switched to glucose-free DMEM media (Thermo Fisher Cat No 26400036) supplemented with 10 mM galactose (Sigma Cat No G5388), 1 mM sodium pyruvate (Thermo Fisher Cat No 11360070), 10% dialyzed FBS (Thermo Fisher Cat No 26400036) and 1% antibiotic-antimycotic solution. Cell viability was determined by resazurin (Sigma Cat No R7017) reduction assay or crystal violet staining following standard procedures.
The screen uses cells lacking UQ (e.g., Mclk1 KO cells) and consists of three key steps: • 1) Day 0: preparation of Mclk1 KO cells in 96-well plates in standard (glucose-containing) culture medium. • 2) Day 1: changing to glucose-free galactose-containing medium and adding compounds to be screened at a concentration of approximately 10 μM. • 3) Day 4 to 6: following 3 to 5 days of incubation with the compound to be screened, media were removed and cell viability was assayed by resazurin reduction assay.
(§1) The resazurin cell viability assay. Briefly, resazurin was added directly to plates at 1/10 the volume of glucose culture medium. Viable cells with active metabolism can reduce resazurin into resorufin which causes a colour change from blue to pink. After a 2 hr incubation, plates were read on a plate reader (Tecan) to record absorbance at 570 nm and 600 nm. The cell viability was scored as a percentage relative to the signal from untreated glucose-grown wells. Consequently, each screened compound may be described by its effect (no, partial or full rescue) on survival of the KO cells in galactose medium.

wildtype MEFs = experiment: Cellular UQ10 levels (quinone quantification by HPLC); type: cell-based, mouse; conditions: for cellular uptake of exogenous UQ10: in combination with UQ10, vs UQ10 alone
Method: (§2) Quantification of quinones. Quinone content was detected and quantified by HPLC as previously described. […] After centrifugation for 5 min at 8,000×g, the hexane layer was collected and evaporated in a vacuum centrifuge. The quinone residue was then dissolved in ethanol and stored at −20° C. until HPLC analysis. The HPLC analysis was performed on a reverse phase C18 column (25.0×0.46 cm, 5 μm, Highchrom) using UV detection at 275 nm (Beckman System Gold). The mobile phase was methanol/ethanol (70:30 v/v) and isocratic elution was used at a flow rate of 1.8 ml/min.

[1] = Drop collapse assay (surfactant activity); type: physicochemical
Method: Drop collapse assay is a simple detection method of surface active agents. It relies on the capacity of surfactants to destabilize the liquid droplets on an oily surface. The drop-collapsing ability of McC1 along with other known potent surfactants was characterized. For each, 40 ul of compound solution in water was pipetted onto a hydrophobic Parafilm surface and the diameter of the drops was measured 1 min later using a ruler.

cells = experiment: Cellular UQ measurements after treatment with micellar UQ10 solutions (FIG. 22); type: cell-based; conditions: UQ10 solution prepared with the surfactant, 6 μM UQ10, 1-day
Description: UQ levels are expressed as ng per mg of protein (mean±SEM). Each bar represents the average of 2 to 3 independent measurements. […] ND: not detected. #p<0.0001 (vs. untreated controls; two-way ANOVA followed by Dunnett's multiple comparison test).

Pdss2/Mclk1 DKO cells [2] = experiment: Viability in glucose-free galactose-containing medium (resazurin reduction assay); type: cell-based, mouse
Method: Tissue culture and viability assays. […] Cell viability was determined by resazurin (Sigma Cat No R7017) reduction assay or crystal violet staining following standard procedures.
as §1
The screen also uses cells lacking UQ biosynthesis (e.g., DKO cells) and its protocol is essentially the same as the galactose-only screen except that in step 2, a minimal amount of UQ10 is added into the galactose screening media at a concentration at which the added UQ10 is insufficient by itself to support survival.

[3] = Method: Solubilization studies. In order to link the surfactant properties of McC1 and its stimulating impact on UQ10 uptake, the solubilization characteristics of McC1 on UQ10 have been determined. First, solubilization test was performed by overnight shaking of a mixture of UQ10 and McC1 in water.
Additional solubilization tests were performed using sonication. Excess amount of UQ10 was mixed with McC1 by sonication for 2 min in water.
Like caspofungin/McC1, surfactin is a cyclic lipopeptide. It is produced from various strains of Bacillus subtilis. Structurally it consists of a peptide chain formed by seven amino acids linked to a β-hydroxyl fatty acid via a lactone bond. It is known for its exceptional surfactant power. […] Then, solubilization test was performed by overnight shaking of a mixture of UQ10 and surfactin in water. The mixture were subjected to brief centrifugation to separate undissolved UQ10 before absorbance of the resultant clear supernatant at 275 nm was measured spectrophotometrically.
Several other surfactants were tested for their ability to solubilize UQ. Briefly, excess amount of UQ10 was mixed with water solution of the tested surfactants using sonication. The resultant suspensions were then filtered through a 0.45 μm syringe filter to remove undissolved UQ10.

Pdss2/Mclk1 DKO cells [4] = experiment: Oxygen consumption rate (OCR) by Seahorse XF analyzer; type: cell-based, mouse; conditions: co-treatment with UQ10
Method: Measurement of oxygen consumption by Seaborse XF analyzer. Cells were seeded in XF v7 24-well plates (Seahorse Bioscience) at ˜40,000 cells/well for 24 hr. Prior to the measurements, cell medium was replaced with Seahorse XF base medium supplemented with 5.5 mM glucose (Sigma Cat No G8769), 2 mM Glutamax (Thermo Fisher Cat No 35050061) and 1 mM sodium pyruvate and allowed to equilibrate for 1 hour at 37° C. Oxygen consumption was measured first under baseline condition, followed by subsequent addition of 1 μg/ml oligomycin (Sigma Cat No 04876), 0.8 μM FCCP (Sigma Cat No C2920) and a combination of 1 μM rotenone (Sigma Cat No R8875) and 5 μM antimycin A (Sigma Cat No A8674) to assess the basal and maximal mitochondrial respiration rates. Four baseline measurements were recorded before the consecutive addition of the above-mentioned compounds, and three response measurements were taken after the addition of each compound. Results were finally normalized to protein content determined using the Bradford reagent (Bio-Rad). For experiments that involved culturing cells in the presence of lipoprotein-deficient serum (LPDS), cells were grown in culture medium supplemented with LPDS (Sigma S5394) for 1 week before OCR was measured using a Seahorse XF-24 extracellular flux analyzer as described above.

Pdss2/Mclk1 DKO MEFs = experiment: Cellular UQ10 levels (quinone quantification by HPLC); type: cell-based, mouse; conditions: in combination with UQ10, vs UQ10 alone
Method: as §2

[5] = tested on: mitochondria of wild-type MEFs; experiment: UQ levels in mitochondrial extracts; type: cell-based, mouse
Description: FIGS. 7A to 7D present exemplary data showing that McC1 is capable of increasing the uptake of exogenous UQ into cells and mitochondria. (A) Bar chart showing change of UQ10 levels (as measured in ng/μg of protein) in Pdss2/Mclk1 DKO MEFs after treatment with UQ10, McC1 alone, or UQ10 and McC1 in combination. **p<0.01, ***p<0.001 (one-way ANOVA). (B) Bar charts presenting exemplary data showing changes of UQ levels in wildtype MEFs after treatment with UQ10, McC1 alone, or both in combination. Results are shown as cellular UQ10 levels (as provided in ng/μg of protein, left panel) or UQ9 levels (as provided in ng/μg of protein, right panel) in untreated cells, after treatment with 12.5 μM of McC1, after treatment with 2.5 μM of UQ10, or after co-treatment UQ10 and McC1. Results are mean±SEM (n=3). ****p<0.0001 (one-way ANOVA). (C) Bar chart presenting exemplary data showing changes of UQ10 and UQ9 levels in mitochondrial extracts from wildtype MEFs after treatment with UQ10 alone, or in combination with McC1. Results are shown as UQ9 and UQ10 levels in ng/μg of protein. Results are mean±SEM (n=3). ****p<0.0001 (student's t-test). (D) Bar chart presenting exemplary data showing changes of UQ10 level in mitochondrial extracts from Pdss2/Mclk1 DKO MEFs after treatment with UQ10 alone, or in combination with McC1. Results are shown as UQ10 levels (as provided in ng/μg of protein) in untreated DKO cells, after treatment with 2.5 μM of UQ10, or after co-treatment 2.5 μM of UQ10 and 12.5 μM of McC1. ND: Not Detectable. Results are mean±SEM (n=3). ****p<0.0001 (one-way ANOVA).
as §2

Compound: O=C(O)c1ccc(O)cc1O [2,4-DHB, 2,4-dihydroxybenzoic acid]
survival of Mclk1 KO cells in galactose-containing media (Mclk1 KO cells): allows them to survive in galactose-containing media

Compound: CCCCCOc1ccc(-c2ccc(-c3ccc(C(=O)N[C@H]4C[C@@H](O)[C@@H](O)NC(=O)[C@@H]5[C@@H](O)[C@@H](C)CN5C(=O)[C@H]([C@@H](C)O)NC(=O)[C@H]([C@H](O)[C@@H](O)c5ccc(O)cc5)NC(=O)[C@@H]5C[C@@H](O)CN5C(=O)[C@H]([C@@H](C)O)NC4=O)cc3)cc2)cc1 [AFG, Anidulafungin] ({pTerphenylCO(4''-OnC5H11)}-[Orn(4R-OH,5R-OH)]T[Hyp][hTyr(3S-OH,4S-OH)]T[Pro(3S-OH,4S-Me)]; lactam 1-C)
cellular uptake of exogenous UQ10 (wildtype MEFs): did not further increase the level of UQ10
surfactant (drop collapse) activity [1]: no drop collapse activity

Compound: CCCCCOc1ccc(-c2cc(-c3ccc(C(=O)N[C@H]4C[C@@H](O)[C@@H](O)NC(=O)[C@@H]5[C@@H](O)[C@@H](C)CN5C(=O)[C@H]([C@H](O)CC(N)=O)NC(=O)[C@H]([C@H](O)[C@@H](O)c5ccc(O)c(OS(=O)(=O)O)c5)NC(=O)[C@@H]5C[C@@H](O)CN5C(=O)[C@H]([C@@H](C)O)NC4=O)cc3)no2)cc1 [MFG, Micafungin] (X2-[Orn(4R-OH,5R-OH)]T[Hyp][hTyr(3S-OH,4S-OH,3'-OSO3H)][Gln(3R-OH)][Pro(3S-OH,4S-Me)]; lactam 1-C)
cellular uptake of exogenous UQ10 (wildtype MEFs): did not further increase the level of UQ10
surfactant (drop collapse) activity [1]: no drop collapse activity

Compound: CCCCCCCC/C=C\CCCCCCCC(=O)ON1C(=O)CC(S(=O)(=O)O)C1=O (centres unmarked) [SSO, sulfo-N-succinimidyl oleate]
effect on cellular uptake of UQ10 (wildtype MEFs; cells treated with UQ10 or UQ10 combined with McC1 (FIG. 8)): inhibits cellular uptake of UQ10

Compound: CCCCCCCCCCCCCC[N+](C)(C)C.[Br-] [TTAB, Tetradecyl trimethyl ammonium bromide]
cellular uptake of UQ10 compared to adding UQ10 alone (cells): increased cellular uptake of UQ10

Compound: COC1=C(OC)C(=O)C(C/C=C(\C)CC/C=C(\C)CC/C=C(\C)CC/C=C(\C)CC/C=C(\C)CC/C=C(\C)CC/C=C(\C)CC/C=C(\C)CCC=C(C)C)=C(C)C1=O [UQ9, ubiquinone-9]
rescue from galactose-induced cell death by UQ supplementation (Pdss2/Mclk1 DKO cells [2]; if provided at a sufficient amount): sufficient to rescue them from galactose-induced cell death

solubilization power for UQ compared to McC1 [3]: lower solubilization power than McC1
water solubility of UQ10 in the presence of the compound [3]: increased
surfactant (drop collapse) activity [1]: potent surfactant activity
Compound: CC(C)CCCCCCCCC[C@@H]1CC(=O)N[C@@H](CCC(=O)O)C(=O)N[C@@H](CC(C)C)C(=O)N[C@H](CC(C)C)C(=O)N[C@@H](C(C)C)C(=O)N[C@@H](CC(=O)O)C(=O)N[C@H](CC(C)C)C(=O)N[C@@H](CC(C)C)C(=O)O1 [surfactin] (HELM PEPTIDE1{E.L.[dL].V.D.[dL].L}|CHEM1{[CC(C)CCCCCCCCC[C@H](CC(=O)[*:1])O[*:2]]}$PEPTIDE1,CHEM1,1:R1-1:R1|PEPTIDE1,CHEM1,7:R2-1:R2$$$V2.0)
viability rescue of DKO cells (Pdss2/Mclk1 DKO cells [2]; 10 μM surfactin with a small amount of UQ10 (FIG. 17D)): full viability rescue
survival of DKO cells in galactose medium (Pdss2/Mclk1 DKO cells [2]; compound by itself, no UQ10 added): no effect
mitochondrial respiration (OCR) compared with UQ10 treatment alone (Pdss2/Mclk1 DKO cells [4]): Higher respiration rates
cellular uptake of exogenous UQ10 (Pdss2/Mclk1 DKO MEFs): improves UQ10 uptake into cells
UQ uptake into mitochondria compared to McC1 ([5]; FIG. 17C right panel): less stimulating action on UQ uptake into mitochondria
uptake of exogenous UQ10 into mitochondria ([5]; in combination with UQ10, vs UQ10 alone): augmented uptake of UQ into mitochondria

Compound: Benzalkonium chloride [BAC]
cellular uptake of UQ10 compared to adding UQ10 alone (cells): increased cellular uptake of UQ10

solubilization of UQ10 in water by the compound [3]: improve the water solubility of UQ10
Compound: Saponins

Compound: lipopeptide detergent-12 [LPD-12]
solubilization of UQ10 in water by the compound [3]: increases the water solubilization of UQ10
